In assay [1] the test system is SOJ-6 cells. The experiment in a line: MTT cell growth and proliferation assay, SOJ-6. Type of assay: cell-based, human. The following applies: SOJ-6 treated with raft-disrupting drug or glycosphingolipid biosynthesis inhibitor (10 μM), with mAb16D10. How it is done: (§1) Cell proliferation was determined using MTT assay as previously described (Mosmann et al., 1983 J Immunol Methods, 65(1-2):55-63). Briefly, cells were seeded at subconfluence in appropriate complete media containing 10% FCS in 96-well culture plates. Media were replaced for 24 h by fresh media with 10% inactivated FCS, including increasing concentrations of antibodies directed against FAPP (pAbL64, mAbJ28 and mAb16D10). Cells were washed with PBS and incubated with 100 μl of MTT (0.5 mg/ml) in complete media for 3 h, washed with PBS and finally incubated with DMSO for 30 min at 37° C. Cell growth was determined by measuring absorbance at 550 nm using a MR 5000 microplate spectrophotometer. All independent determinations were done in triplicate and compared to control.

Another assay has as its system PANC-1 cells. The experiment in a line: MTT cell growth and proliferation assay, PANC-1. The following applies: PANC-1, 24 hours, gemcitabine 0 to 10 μM or cisplatin 0 to 40 μM. Type of assay: cell-based, human. How it is done: as §1
Another assay has as its system pancreatic cancers. To be noted: patients with pancreatic cancer; cited from earlier work.
Assay [2] deals with Bcl-2, Bax, caspases 8 and 9, PARP in SOJ-6 cells. The experiment in a line: SDS-PAGE and western blot of apoptosis proteins. Type of assay: cell-based, human. To be noted: SOJ-6, 24 hours. How it is done: SOJ-6 cells were grown in 6-well culture plates in RPMI 1640 medium with 10% FCS. At subconfluency, the medium was removed and replaced for 24 hours by fresh RPMI medium with 10% inactivated FCS. SOJ-6 cells were then incubated with mAb16D10 or Cisplatin for 24 hours. At the end of incubation, cells were washed three times with ice-cold PBS (without […] and Mg^++) harvested and pelleted by centrifugation. Pellets were washed twice and lysed at 4° C. in 0.5 ml of lysis buffer (10 mM Tris-HCl pH 7.4, 150 mM NaCl, 1% Triton X-100, 1 mM benzamidine and phosphatase inhibitors). After lysis, homogenates were clarified by centrifugation at 10,000 g for 10 min at 4° C. An aliquot was saved for protein determination using the bicinchoninic acid assay (Pierce, Rockford, Ill.). Proteins (50 μg/lane) in reducing SDS buffer were separated onto 10, 12, or 15% polyacrylamide with 0.1% SDS (according to the molecular weight range of proteins to be separated). After electrophoretic migration, proteins were silver stained. Alternatively, proteins were transferred onto nitrocellulose membranes using a Mini Transblot electrophoretic cell (BioRad, Hercule, Oreg.), and transferred proteins were immunodetected by using appropriate primary and secondary antibodies. After washes, membranes were developed with a chemoluminescent substrate according to the manufacturer's instructions (Roche Diagnostics, Switzerland). In each experiment, a control was included by omitting primary antibodies or by using a non-immune serum.
(In general: In western blotting, separated proteins are transferred to a membrane and probed.)

Assay [3] has as its system SOJ-6 cells. The experiment in a line: MTT cell growth and proliferation assay, SOJ-6. Type of assay: cell-based, human. The following applies: SOJ-6, 24 hours, gemcitabine 0 to 10 μM or cisplatin 0 to 40 μM.
The subject of assay [4] is SOJ-6 cells. Description: Apoptosis by caspase activity (CaspACE FITC-VAD-fmk in situ marker). Type of assay: cell-based, human. The following applies: SOJ-6, 24 hours; 16D10 25 μg/ml, recombinant chimeric 16D10 5 μg/ml. How it is done: Cells grown in 8-well plates (Polystyrene vessel, BD Falcon) were treated with mAb16D10 or mouse IgM in RPMI with inactivated FCS for 24 hours prior to the addition of CaspACE FITC-VAD-fmk in situ marker (Promega) at a final concentration of 10 μM in the culture medium according to manufacturer's instructions. Then cells were washed in PBS, fixed for 15 minutes in 2% paraformaldehyde, and washed once again. Upon caspase action on FITC-VAD-fmk, apoptotic cells become fluorescent and the number of fluorescent cells was determined in triplicate on collections of 10 fields randomly examined under the fluorescent microscope.

In assay [5] the test system is 16D10 epitope on the BSDL/FAPP polypeptide of SOJ-6 cells. The experiment in a line: 16D10 epitope expression on drug-treated cells (immunofluorescence and flow cytometry). To be noted: for cell morphology of drug-treated cells: SOJ-6, immunofluorescence; for 16D10 staining by immunofluorescence of drug-treated cells: SOJ-6 on glass slides; for Average (16D10 binding, flow cytometry) / 16D10 epitope expression: SOJ-6 treated with 20 μM cisplatin or 5 μM gemcitabine; for Average (16D10 binding, flow cytometry): control 418.7 +/− 50.5; for 16D10 epitope expression: change versus control. Type of assay: cell-based, human.
Procedure: Antibody 16D10 binding to SOJ-6 cells following treatment with chemotherapeutic agents was tested in order to assess whether gemcitabine or cisplatin affect the expression of the 16D10 epitope on the BSDL/FAPP polypeptide. Antibody 16D10 binding was assessed by immunofluorescence and flow cytometry following treatment of SOJ-6 cells with 20 μM cisplatin or 5 μM gemcitabine.
For immunofluorescence, SOJ-6 cells were cultured on glass slides and treated or not with gemcitabine or cisplatin, fixed and incubated in the presence of 16D10 and a secondary antibody coupled to fluorescein. Slides were assessed with fluorescence microscope.

In another assay the test system is NK cells. Description: NK cell activation (ADCC): CD107 mobilization and IFN-γ production by flow cytometry. To be noted: presence of SOJ-6 cells. Type of assay: cell-based, human. How it is done:
Thawed purified human NK cells stimulated or not overnight with 100 UI/mL of IL-2 were mixed with SOJ-6 or B221 cell lines at an effector/target ratio equal to 1, alone or in the presence of rec16D10 (30 μg/mL) or rituxan (10 μg/mL). Cells were then incubated for 4 hours at 37° C. in the presence of FITC conjugated anti-CD107 mAbs (Becton Dickinson) and monensin (sigma). After incubation, cells were washed in PBS containing 2 mM EDTA to disrupt cell conjugates and stained for extracellular markers (PC5 conjugated anti-CD56 and PC7 conjugated anti-CD3 purchased from Beckman coulter). Cells were then fixed and permeabilized using IntraPrep reagent (Beckman Coulter). […] Samples were then analysed on FACScanto (Becton Dickinson).
The chimeric antibody rec16D10 (30 μg/ml) was incubated with target SOJ-6 cells together with NK cells, with or without overnight treatment with IL-2 (100 U/ml) (FIG. 19). As a control, the Rituxan antibody (10 μg/ml) was used with target B221 cells. Effector cells and target cells were used at a ratio of: 1/1 (100000 NK/well). Thawed purified NK cells from two donors (NK1 and NK2) were incubated with the antibodies and target cells. Activation of NK cells was examined by virtue of CD 107 staining and IFN-γ secretion. […] Under similar conditions, approximately 30% of NK1 and NK2 cells secreted IFN-γ (vs. less than 16% and 13% in the absence of antibody or with Rituxan in NK1 and NK2 cells, respectively) (FIG. 21).

Assay [6] deals with SOJ-6 cells. Description: Nuclear staining with DAPI (nuclear fragmentation). Type of assay: cell-based, human. The following applies: RPMI induced no apoptosis. The method, then:
After treatment with mAb16D10 or cisplatin, cells were washed in ice-cold PBS, fixed and permeablized with 70% ethanol for 5 min at […] and staining with diluted 1/1000 DAPI solution in PBS for 1 min at room temperature. The cells were then washed with PBS. The nuclear morphology of cells was examined by fluorescence microscopy.

Assay [7] relates to SOJ-6 cells. The experiment in a line: Annexin V / PI apoptosis assay. Type of assay: cell-based, human. The following applies: antibodies 20 μg/ml, tunicamycin 25 or 50 μg/ml. How it is done:
SOJ-6 cells (20.10^4 cells per well) were seeded onto 24 wells plates 72H before to start the experiment. Cells were incubated either with 20 μg/ml 16D10 IgM, or 20 μg/ml of a further recombinant 16D10 IgG1 antibody which contained the 16D10 variable regions linked fused to a human IgG1 constant region and human kappa light region for the heavy and light chains respectively, 25 μg/ml Tunicamycin or 50 μg/ml Tunicamycin. The AnnexinV/PI stainings were performed after 24H of culture using the AnnexinV-FITC Apoptosis Detection Kit I (BD Pharmingen) according to the manufacturer instructions. Stainings were acquired on a FACScan (Becton Dickinson, San Jose, Calif.) and results were analysed using FlowJo Software.

In assay [8] the target is PANC-1. The experiment in a line: isotype control in indirect immunofluorescence flow cytometry (FL1-H) on PANC-1 cells (no FAPP); antibody concentration not given; row 'Control -': Median 3,22. Background: A flow cytometer gives signals particle by particle.
The target of assay [9] is feto-acinar pancreatic protein (FAPP), oncofetal glycoisoform of pancreatic bile salt-dependent lipase (BSDL), on the surface of SOJ-6 human pancreatic tumor cells (human) (UniProt P19835). The experiment in a line: isotype control in indirect immunofluorescence flow cytometry (FL1-H) on SOJ-6 cells; broad histogram from about 2 to about 300 FL1-H, between the negative control and mAb16D10; antibody concentration not given; row 'Control -': Mean 3,43.
Chain of feto-acinar pancreatic protein (FAPP), oncofetal glycoisoform of pancreatic bile salt-dependent lipase (BSDL), on the surface of SOJ-6 human pancreatic tumor cells (human) (P19835 21-753): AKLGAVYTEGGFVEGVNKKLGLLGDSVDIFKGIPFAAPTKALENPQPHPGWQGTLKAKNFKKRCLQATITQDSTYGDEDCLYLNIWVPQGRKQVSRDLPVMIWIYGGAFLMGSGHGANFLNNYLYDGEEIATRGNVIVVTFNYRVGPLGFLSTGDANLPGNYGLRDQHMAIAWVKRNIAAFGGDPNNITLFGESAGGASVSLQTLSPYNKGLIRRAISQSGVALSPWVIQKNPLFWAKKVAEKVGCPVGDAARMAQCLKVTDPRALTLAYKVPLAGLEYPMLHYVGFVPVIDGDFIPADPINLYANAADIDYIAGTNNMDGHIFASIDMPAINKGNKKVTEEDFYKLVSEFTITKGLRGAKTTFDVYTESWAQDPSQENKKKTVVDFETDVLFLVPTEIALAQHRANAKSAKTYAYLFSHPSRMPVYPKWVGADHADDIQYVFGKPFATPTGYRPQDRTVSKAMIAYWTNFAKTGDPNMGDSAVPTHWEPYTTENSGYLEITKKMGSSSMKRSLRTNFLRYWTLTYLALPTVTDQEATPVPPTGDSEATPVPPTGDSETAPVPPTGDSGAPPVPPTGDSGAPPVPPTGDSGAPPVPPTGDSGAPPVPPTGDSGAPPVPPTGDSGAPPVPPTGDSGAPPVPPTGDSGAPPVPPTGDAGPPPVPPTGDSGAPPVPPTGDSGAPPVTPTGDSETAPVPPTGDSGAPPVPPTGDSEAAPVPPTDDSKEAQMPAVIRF

Assay [10] deals with PANC-1. Description: isotype control in indirect immunofluorescence flow cytometry (FL1-H) on PANC-1 cells (no FAPP); main peak near the negative control with a tail to about 100-200 FL1-H; antibody concentration not given; row 'Control -': Mean 4,60.
The target in assay [11] is feto-acinar pancreatic protein (FAPP), oncofetal glycoisoform of pancreatic bile salt-dependent lipase (BSDL), on the surface of SOJ-6 human pancreatic tumor cells (human) (UniProt P19835). Description: isotype control in indirect immunofluorescence flow cytometry (FL1-H) on SOJ-6 cells; antibody concentration not given; row 'Control -': Median 3,02.

`CCCCCCCCCC(=O)NC(CN1CCOCC1)C(O)c1ccccc1` (stereo not shown) [PDMP, Phenyl-2-decanoylamino-3-morpholino-1-propanol]: in the assay with SOJ-6 cells [1], the “influence on the antiproliferative effect of mAb16D10” value (“influence” below) was “impaired the effect of mAb16D10 on SOJ-6 cell proliferation”.
In the case of `Nc1ccn(C2OC(CO)C(O)C2(F)F)c(=O)n1` (stereo not shown) [Gemcitabine, 4-amino-1-[3,3-difluoro-4-hydroxy-5-(hydroxymethyl)tetrahydrofuran-2-yl]-1H-pyrimidin-2-one], the “proliferation by MTT assay” value in the assay on PANC-1 cells is on record as “relatively resistant to gemcitabine”. Also, in the assay with pancreatic cancers, the “improvement in survival at one year compared to untreated patients” value was 18%. For the same compound, the “activation of caspase 9 and PARP (immunodetection)” value in assay [2] is “activated”. Moreover, the “proliferation by MTT assay” value in the assay with SOJ-6 cells [3] was “a decrease in proliferation is seen only in SOJ-6 cells”. The “apoptosis by caspase activity (number of apoptotic cells compared to control)” value in the assay on SOJ-6 cells [4] is reported as “induce apoptosis on SOJ-6 cells”. In assay [5], the “cell morphology of drug-treated cells” value is “clear morphological changes”; the “16D10 staining by immunofluorescence of drug-treated cells” value was “showed staining with 16D10”; the “Average (16D10 binding, flow cytometry)” value was 419.0 +/− 36.2; the 16D10 epitope expression was found to be 0.
On to “Rituxan: Rituxan antibody used as a control with target B221 cells [reference compound]”, for which the “NK1 cells secreting IFN-γ” value with NK cells (donor NK1, IL-2 treated) is given as “less than 16%”. Further, the “CD 107-positive staining of NK1 cells” value in the assay on NK cells (donor NK1, IL-2 treated, E/T 1/1, rec16D10 30 μg/ml, Rituxan 10 μg/ml) is under 30%. In addition, the “NK2 cells secreting IFN-γ” value in the assay on NK cells (donor NK2, IL-2 treated) is under 13%. The “CD 107-positive staining of NK2 cells” value in the assay with NK cells (donor NK2, IL-2 treated, E/T 1/1, rec16D10 30 μg/ml, Rituxan 10 μg/ml) is on record as under 20%.
For `N[C@H]1CONC1=O` [L-cyclo-serine], in the assay with SOJ-6 cells [1], the “influence” value was “neither L-cyclo-serine (LCS) (an inhibitor of serine palmitoyltransferase) nor Fumonisin 1 or 2 (both inhibitors of dihydroceramide synthetase) interfered”.
Take `N.N.[Cl][Pt][Cl]` [Cisplatin, cis-diaminedichloridoplatinum(II)]: in the assay on PANC-1 cells, the “proliferation by MTT assay” value was “dose dependent decrease in proliferation is seen for both cell lines”. Moreover, the “activation of caspase 9 and PARP (immunodetection)” value in assay [2] is “activated”. Moreover, the “apoptosis observed by DAPI staining (nuclear fragmentation)” value in the assay on SOJ-6 cells [6] is “low level of apoptosis”. Also, the “proliferation by MTT assay” value in the assay on SOJ-6 cells [3] is recorded as “dose dependent decrease in proliferation is seen for both cell lines”. For the same compound, the “16D10 surface binding of drug-treated cells (flow cytometry, in words)” value in assay [5] (SOJ-6) is given as “decrease in expression of the 16D10 epitope”. In addition, in [5], the “cell morphology of drug-treated cells” value was “clear morphological changes”; the “16D10 staining by immunofluorescence of drug-treated cells” value is recorded as “showed staining with 16D10”; the “Average (16D10 binding, flow cytometry)” value was 324.6 +/− 26.3; the 16D10 epitope expression was −32.5.
Turning to tunicamycin [reference compound], in the assay with SOJ-6 cells [7], the “apoptosis by Annexin V and Annexin V/PI staining” value is given as “induced significant levels of apoptosis”.
For the compound IgM mouse SIGMA (antibody), the Median in the assay with PANC-1 [8] stood at 4.61; in assay [11], 19.8. Further, the Mean is 86.7 in [9] and 13 in the assay with PANC-1 [10].
Take `CCCC[C@@H](C)[C@@H](OC(=O)C[C@@H](CC(=O)O)C(=O)O)[C@H](C[C@@H](C)CCCCCC[C@@H](O)C[C@H](O)[C@H](C)N)OC(=O)C[C@@H](CC(=O)O)C(=O)O` [Fumonisin 2, Fumonisin B2]: the “influence” value in the assay on SOJ-6 cells [1] was “neither L-cyclo-serine (LCS) (an inhibitor of serine palmitoyltransferase) nor Fumonisin 1 or 2 (both inhibitors of dihydroceramide synthetase) interfered”.
Same read-out and setting: the value for `CCCC[C@@H](C)[C@@H](OC(=O)C[C@@H](CC(=O)O)C(=O)O)[C@H](C[C@@H](C)C[C@H](O)CCCC[C@@H](O)C[C@H](O)[C@H](C)N)OC(=O)C[C@@H](CC(=O)O)C(=O)O` [Fumonisin 1, Fumonisin B1] was “neither L-cyclo-serine (LCS) (an inhibitor of serine palmitoyltransferase) nor Fumonisin 1 or 2 (both inhibitors of dihydroceramide synthetase) interfered”; that for `CCCCC[C@@H](O)[C@H]1C(=O)O[C@H](C)[C@@H](O)/C=C/C=C/C=C/C=C/C=C(\C)[C@@H](O)C[C@H](O)C[C@H](O)C[C@H](O)C[C@H](O)C[C@H](O)C[C@@H]1O` [Filipin] was “decreased”.
In the case of methyl-β-cyclodextrin, the “influence” value is “decreased” in the assay with SOJ-6 cells [1] and “decreases or abolishes the cell growth inhibiting activity of antibody 16D10” with SOJ-6 cells [1] (listed as MBCD).

(Values after patent US20100124555A1, “Compositions and Methods for Treating Pancreatic Tumors” (UNIVERSITE DE LA MEDITERRANEE, priority 2007, published 2010).)
